Experimental findings from PubChem BioAssay (NCI) are described below.

SMILES strings stand for the structures. “And” between values parts separate entries of the source, which are not always exact repeats. Equal values may be shown once.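 Dose response: 5 concentrations. Exposure: 48 h. Format: 96-well plates. Endpoint: linear interpolation; highest concentration if not reached. Here, GI50 denotes the concentration required for 50% inhibition of growth. At the TGI there is no net growth.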

The subject of one assay is SN12C renal. Description: NCI-60 cell line screen, 48 h.
As for `COc1cc(CSc2nc3ccc(C)cc3c(=O)n2-c2ccccc2)cc(OC)c1OC`, the GI50 was 4.56 µM and the TGI is > 100 µM.
On to `CCC1C2Cc3ccc(O)cc3C1(CC)CCN2C` (configuration not stated), for which the TGI is > 100 µM.
For the molecule `CC1CCC(NC(=O)N(CCCl)N=O)CC1` (configuration not stated), the GI50 was 19.1 µM; the TGI was 41.7 µM and 81.4 µM.
Regarding `C=C1C(=O)O[C@H]2[C@H]1CC/C(COC(=O)NCc1cn(C)c3ccccc13)=C\CC[C@@]1(C)O[C@@H]21`, the GI50 is 1.21 µM and the TGI turned out to be 3.01 µM.
Consider `O=C1Nc2ccccc2/C1=C/C(=O)c1coc2c1C(=O)c1ccccc1C2=O`, for which the GI50 was > 100 µM and the TGI is > 100 µM.
As for `Nc1c(C(=O)c2cccc(-c3ccncc3)c2)cnn1-c1ccc(F)cc1F`, the GI50 is 12.1 µM and the TGI is > 25 µM.

The subject of a further assay is 786-0 renal. Description: NCI-60 cell line screen, 48 h.
Turning to `COc1cc(CSc2nc3ccc(C)cc3c(=O)n2-c2ccccc2)cc(OC)c1OC`, the GI50 was 6.56 µM and the TGI was > 100 µM.
Take `CCC1C2Cc3ccc(O)cc3C1(CC)CCN2C` (configuration not stated): the TGI was > 100 µM.
Consider `CC1CCC(NC(=O)N(CCCl)N=O)CC1` (configuration not stated), for which the GI50 is 13.9 µM; the TGI was 32.4 µM and 64.2 µM.
Turning to `C=C1C(=O)O[C@H]2[C@H]1CC/C(COC(=O)NCc1cn(C)c3ccccc13)=C\CC[C@@]1(C)O[C@@H]21`, the GI50 was 0.685 µM and the TGI is 2.04 µM.
Turning to `O=C1Nc2ccccc2/C1=C/C(=O)c1coc2c1C(=O)c1ccccc1C2=O`, the GI50 was > 100 µM and the TGI was > 100 µM.
`Nc1c(C(=O)c2cccc(-c3ccncc3)c2)cnn1-c1ccc(F)cc1F`: the GI50 is > 25 µM and the TGI is > 25 µM.

The test system of another assay is K-562 leukemia. Description: NCI-60 cell line screen, 48 h.
Consider `COc1cc(CSc2nc3ccc(C)cc3c(=O)n2-c2ccccc2)cc(OC)c1OC`, for which the GI50 was 0.534 µM and the TGI is > 100 µM.
As for `CCC1C2Cc3ccc(O)cc3C1(CC)CCN2C` (configuration not stated), the TGI is > 100 µM.
On to `CC1CCC(NC(=O)N(CCCl)N=O)CC1` (configuration not stated), for which the GI50 is 0.122 µM; the TGI is 28.9 µM and 119 µM.
For `C=C1C(=O)O[C@H]2[C@H]1CC/C(COC(=O)NCc1cn(C)c3ccccc13)=C\CC[C@@]1(C)O[C@@H]21`, the GI50 is 0.369 µM and the TGI was determined as 9.26 µM.
The like results for `O=C1Nc2ccccc2/C1=C/C(=O)c1coc2c1C(=O)c1ccccc1C2=O` were, in that order, > 100 µM and > 100 µM.
The like results for `Nc1c(C(=O)c2cccc(-c3ccncc3)c2)cnn1-c1ccc(F)cc1F` were, in that order, 2.57 µM and > 25 µM.

For a further assay, the system named is SR leukemia. In words: NCI-60 cell line screen, 48 h.
`COc1cc(CSc2nc3ccc(C)cc3c(=O)n2-c2ccccc2)cc(OC)c1OC`: the GI50 is 0.409 µM and the TGI is > 40.8 µM.
In the case of `CCC1C2Cc3ccc(O)cc3C1(CC)CCN2C` (configuration not stated), the TGI is > 100 µM.
Regarding `CC1CCC(NC(=O)N(CCCl)N=O)CC1` (configuration not stated), the GI50 is 0.832 µM.
For the molecule `C=C1C(=O)O[C@H]2[C@H]1CC/C(COC(=O)NCc1cn(C)c3ccccc13)=C\CC[C@@]1(C)O[C@@H]21`, the GI50 was 0.395 µM and the TGI came out at 4.61 µM.
The like results for `O=C1Nc2ccccc2/C1=C/C(=O)c1coc2c1C(=O)c1ccccc1C2=O` were, in that order, 80.4 µM and > 100 µM.
As for `Nc1c(C(=O)c2cccc(-c3ccncc3)c2)cnn1-c1ccc(F)cc1F`, the GI50 is 1.05 µM and the TGI is > 18.5 µM.

For the next assay, the system named is UACC-62 melanoma. Description: NCI-60 cell line screen, 48 h.
For `COc1cc(CSc2nc3ccc(C)cc3c(=O)n2-c2ccccc2)cc(OC)c1OC`, the GI50 was 1.93 µM and the TGI was > 100 µM.
As to `CCC1C2Cc3ccc(O)cc3C1(CC)CCN2C` (configuration not stated), the TGI was > 100 µM.
`CC1CCC(NC(=O)N(CCCl)N=O)CC1` (configuration not stated): the GI50 was 7.87 µM; the TGI is 29.7 µM and 53.5 µM.
As to `C=C1C(=O)O[C@H]2[C@H]1CC/C(COC(=O)NCc1cn(C)c3ccccc13)=C\CC[C@@]1(C)O[C@@H]21`, the GI50 is 1.69 µM and the TGI is 4.33 µM.
In the same order, the values of `O=C1Nc2ccccc2/C1=C/C(=O)c1coc2c1C(=O)c1ccccc1C2=O` are 94.4 µM and > 100 µM.
In the same order, the values of `Nc1c(C(=O)c2cccc(-c3ccncc3)c2)cnn1-c1ccc(F)cc1F` are 5.34 µM and > 25 µM.

The next assay has as its system RPMI-8226 leukemia. In words: NCI-60 cell line screen, 48 h.
`COc1cc(CSc2nc3ccc(C)cc3c(=O)n2-c2ccccc2)cc(OC)c1OC`: the GI50 was 3.28 µM and the TGI is > 100 µM.
Take `CCC1C2Cc3ccc(O)cc3C1(CC)CCN2C` (configuration not stated): the TGI is > 100 µM.
`CC1CCC(NC(=O)N(CCCl)N=O)CC1` (configuration not stated): the GI50 was 12.5 µM; the TGI is 37 µM and 103 µM.
For `C=C1C(=O)O[C@H]2[C@H]1CC/C(COC(=O)NCc1cn(C)c3ccccc13)=C\CC[C@@]1(C)O[C@@H]21`, the GI50 is 0.696 µM and the TGI turned out to be 4.22 µM.
Take `O=C1Nc2ccccc2/C1=C/C(=O)c1coc2c1C(=O)c1ccccc1C2=O`: the GI50 is > 100 µM and the TGI is > 100 µM.
Consider `Nc1c(C(=O)c2cccc(-c3ccncc3)c2)cnn1-c1ccc(F)cc1F`, for which the GI50 was 6.16 µM and the TGI was > 25 µM.

In the next assay the test system is OVCAR-4 ovarian. Description: NCI-60 cell line screen, 48 h.
As to `COc1cc(CSc2nc3ccc(C)cc3c(=O)n2-c2ccccc2)cc(OC)c1OC`, the GI50 was 4.92 µM and the TGI was > 100 µM.
With `CCC1C2Cc3ccc(O)cc3C1(CC)CCN2C` (configuration not stated), the TGI was > 100 µM.
Consider `CC1CCC(NC(=O)N(CCCl)N=O)CC1` (configuration not stated), for which the TGI was found to be 61.1 µM.
Take `C=C1C(=O)O[C@H]2[C@H]1CC/C(COC(=O)NCc1cn(C)c3ccccc13)=C\CC[C@@]1(C)O[C@@H]21`: the GI50 was 2.38 µM and the TGI amounted to 7.92 µM.
The like results for `O=C1Nc2ccccc2/C1=C/C(=O)c1coc2c1C(=O)c1ccccc1C2=O` were, in that order, > 100 µM and > 100 µM.
With `Nc1c(C(=O)c2cccc(-c3ccncc3)c2)cnn1-c1ccc(F)cc1F`, the GI50 was 11.4 µM and the TGI was > 25 µM.

The next assay relates to NCI/ADR-RES ovarian. In words: NCI-60 cell line screen, 48 h.
For the molecule `COc1cc(CSc2nc3ccc(C)cc3c(=O)n2-c2ccccc2)cc(OC)c1OC`, the GI50 is 1.26 µM and the TGI is > 100 µM.
Consider `CCC1C2Cc3ccc(O)cc3C1(CC)CCN2C` (configuration not stated), for which the TGI was > 100 µM.
`CC1CCC(NC(=O)N(CCCl)N=O)CC1` (configuration not stated): the TGI is 129 µM.
For `C=C1C(=O)O[C@H]2[C@H]1CC/C(COC(=O)NCc1cn(C)c3ccccc13)=C\CC[C@@]1(C)O[C@@H]21`, the GI50 is 2.37 µM and the TGI is 12.3 µM.
In the same order, the values of `O=C1Nc2ccccc2/C1=C/C(=O)c1coc2c1C(=O)c1ccccc1C2=O` are > 100 µM and > 100 µM.
In the same order, the values of `Nc1c(C(=O)c2cccc(-c3ccncc3)c2)cnn1-c1ccc(F)cc1F` are 3.83 µM and > 25 µM.

The next assay deals with UACC-257 melanoma. In words: NCI-60 cell line screen, 48 h.
On to `COc1cc(CSc2nc3ccc(C)cc3c(=O)n2-c2ccccc2)cc(OC)c1OC`, for which the GI50 was 19.4 µM and the TGI was > 100 µM.
`CCC1C2Cc3ccc(O)cc3C1(CC)CCN2C` (configuration not stated): the TGI is > 100 µM.
For `CC1CCC(NC(=O)N(CCCl)N=O)CC1` (configuration not stated), the GI50 was 33.5 µM and the TGI was determined as 89.8 µM.
Turning to `C=C1C(=O)O[C@H]2[C@H]1CC/C(COC(=O)NCc1cn(C)c3ccccc13)=C\CC[C@@]1(C)O[C@@H]21`, the GI50 was 1.56 µM and the TGI came to 4.03 µM.
For `O=C1Nc2ccccc2/C1=C/C(=O)c1coc2c1C(=O)c1ccccc1C2=O`, the GI50 was > 100 µM and the TGI was > 100 µM.
For the molecule `Nc1c(C(=O)c2cccc(-c3ccncc3)c2)cnn1-c1ccc(F)cc1F`, the GI50 was 9.47 µM and the TGI is > 25 µM.

In the next assay the test system is MALME-3M melanoma. In words: NCI-60 cell line screen, 48 h.
For the molecule `COc1cc(CSc2nc3ccc(C)cc3c(=O)n2-c2ccccc2)cc(OC)c1OC`, the GI50 is 3.73 µM and the TGI was > 100 µM.
Turning to `CCC1C2Cc3ccc(O)cc3C1(CC)CCN2C` (configuration not stated), the TGI is > 100 µM.
Consider `CC1CCC(NC(=O)N(CCCl)N=O)CC1` (configuration not stated), for which the GI50 is 26 µM; the TGI is 51.5 µM and 98.1 µM.
With `C=C1C(=O)O[C@H]2[C@H]1CC/C(COC(=O)NCc1cn(C)c3ccccc13)=C\CC[C@@]1(C)O[C@@H]21`, the GI50 was 1.92 µM and the TGI was 3.64 µM.
Take `O=C1Nc2ccccc2/C1=C/C(=O)c1coc2c1C(=O)c1ccccc1C2=O`: the GI50 was > 100 µM and the TGI is > 100 µM.
Regarding `Nc1c(C(=O)c2cccc(-c3ccncc3)c2)cnn1-c1ccc(F)cc1F`, the GI50 was 3.98 µM and the TGI is > 16.2 µM.
